In US20240391912A1, “MORPHIC FORMS OF CFT7455 AND METHODS OF MANUFACTURE THEREOF” (C4 THERAPEUTICS, INC., priority 2022, published 2024):

Assays:
[1] = molecular target: T1, Ikaros (also known as IKZF1) (Homo sapiens, UniProt Q13422+Q96SW2); test: Ikaros degradation in PBMC of patients (mass spectrometry); assay type: in vivo; settings: Patients 2, 4, 5; oral 50 μg/day or 25 μg/day; 4 hours, day 7, 14, 21 of cycle 1
T1 construct: total peripheral blood mononuclear cell (PBMC) population extracted from whole blood samples of Patient 2, Patient 4, and Patient 5; endogenous in cells; host or cells: peripheral blood mononuclear cells (PBMC) from whole blood of treated patients
T1 sequence (Q13422 whole entry): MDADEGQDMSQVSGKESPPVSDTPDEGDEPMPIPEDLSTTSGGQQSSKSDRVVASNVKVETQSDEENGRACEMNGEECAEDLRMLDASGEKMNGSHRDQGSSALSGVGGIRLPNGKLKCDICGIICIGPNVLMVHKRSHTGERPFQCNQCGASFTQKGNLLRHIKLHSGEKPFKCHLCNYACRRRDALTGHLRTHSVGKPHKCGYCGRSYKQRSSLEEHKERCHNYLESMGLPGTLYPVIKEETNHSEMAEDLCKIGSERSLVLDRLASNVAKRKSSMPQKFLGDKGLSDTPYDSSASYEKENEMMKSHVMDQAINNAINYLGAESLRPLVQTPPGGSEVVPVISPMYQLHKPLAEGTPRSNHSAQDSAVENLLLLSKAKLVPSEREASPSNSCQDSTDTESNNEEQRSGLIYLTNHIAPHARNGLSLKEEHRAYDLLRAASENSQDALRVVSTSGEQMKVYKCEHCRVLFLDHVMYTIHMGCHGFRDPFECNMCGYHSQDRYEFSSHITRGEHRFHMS
T1 sequence (Q96SW2 whole entry): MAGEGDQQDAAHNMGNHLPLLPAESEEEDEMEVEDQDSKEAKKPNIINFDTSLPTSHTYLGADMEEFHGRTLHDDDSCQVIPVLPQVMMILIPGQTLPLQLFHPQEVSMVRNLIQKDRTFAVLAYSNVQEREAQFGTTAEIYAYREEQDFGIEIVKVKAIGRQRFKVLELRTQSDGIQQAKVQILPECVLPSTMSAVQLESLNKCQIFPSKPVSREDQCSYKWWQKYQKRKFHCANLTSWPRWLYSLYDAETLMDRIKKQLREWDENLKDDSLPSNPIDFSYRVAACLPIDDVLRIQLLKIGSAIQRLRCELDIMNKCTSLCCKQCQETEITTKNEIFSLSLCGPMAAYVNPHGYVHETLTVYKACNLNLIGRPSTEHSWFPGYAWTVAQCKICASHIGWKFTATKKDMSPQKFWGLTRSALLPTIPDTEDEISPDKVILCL
T1 sequence (Q16531 whole entry partner): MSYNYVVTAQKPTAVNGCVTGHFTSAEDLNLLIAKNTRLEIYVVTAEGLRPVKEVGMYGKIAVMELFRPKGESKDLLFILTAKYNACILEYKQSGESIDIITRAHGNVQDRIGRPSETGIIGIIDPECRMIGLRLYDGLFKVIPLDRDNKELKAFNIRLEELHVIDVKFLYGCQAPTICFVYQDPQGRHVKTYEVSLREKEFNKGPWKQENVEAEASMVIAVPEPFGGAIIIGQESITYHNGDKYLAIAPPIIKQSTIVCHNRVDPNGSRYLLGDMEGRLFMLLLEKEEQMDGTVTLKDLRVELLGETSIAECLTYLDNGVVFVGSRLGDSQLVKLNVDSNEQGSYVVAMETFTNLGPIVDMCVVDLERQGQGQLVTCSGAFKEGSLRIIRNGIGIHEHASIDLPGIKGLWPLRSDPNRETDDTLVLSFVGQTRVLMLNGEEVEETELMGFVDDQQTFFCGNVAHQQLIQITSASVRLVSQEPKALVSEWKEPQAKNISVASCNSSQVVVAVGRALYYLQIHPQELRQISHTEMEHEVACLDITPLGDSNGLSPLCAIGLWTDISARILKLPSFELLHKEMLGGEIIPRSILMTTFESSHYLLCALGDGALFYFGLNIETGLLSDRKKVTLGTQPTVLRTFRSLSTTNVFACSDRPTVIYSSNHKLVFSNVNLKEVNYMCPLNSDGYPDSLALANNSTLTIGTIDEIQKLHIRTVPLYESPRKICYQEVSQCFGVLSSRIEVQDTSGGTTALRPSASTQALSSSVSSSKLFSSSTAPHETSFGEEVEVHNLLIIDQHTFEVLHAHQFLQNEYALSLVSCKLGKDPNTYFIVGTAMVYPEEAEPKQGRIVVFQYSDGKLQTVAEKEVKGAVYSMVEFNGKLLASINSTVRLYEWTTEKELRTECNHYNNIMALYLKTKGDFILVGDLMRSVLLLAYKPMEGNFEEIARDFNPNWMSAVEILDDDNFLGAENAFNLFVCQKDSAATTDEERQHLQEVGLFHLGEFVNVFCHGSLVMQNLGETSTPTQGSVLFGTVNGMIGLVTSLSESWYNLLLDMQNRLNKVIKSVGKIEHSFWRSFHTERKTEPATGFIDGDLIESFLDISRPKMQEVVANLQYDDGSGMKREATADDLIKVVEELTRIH
Procedure: (§1) Ikaros (also known as IKZF1) and Aiolos (also known as IKZF3) degradation was evaluated using mass spectrometry analysis of total peripheral blood mononuclear cell (PBMC) population extracted from whole blood samples of Patient 2, Patient 4, and Patient 5 taken on the first day of the first cycle (cycle 1, day 1 or C1D1) prior to treatment, 4 hours post Compound 1 treatment, and on day 7, day 14, and day 21 of the treatment cycle.

[2] = molecular target: T2, Aiolos (also known as IKZF3) (Homo sapiens, UniProt Q9UKT9); test: Aiolos degradation in PBMC of patients (mass spectrometry); assay type: in vivo; settings: Patients 2, 4, 5; oral 50 μg/day or 25 μg/day; 4 hours, day 7, 14, 21 of cycle 1
T2 construct: total peripheral blood mononuclear cell (PBMC) population extracted from whole blood samples of Patient 2, Patient 4, and Patient 5; endogenous in cells; host or cells: peripheral blood mononuclear cells (PBMC) from whole blood of treated patients
T2 sequence (Q9UKT9 whole entry): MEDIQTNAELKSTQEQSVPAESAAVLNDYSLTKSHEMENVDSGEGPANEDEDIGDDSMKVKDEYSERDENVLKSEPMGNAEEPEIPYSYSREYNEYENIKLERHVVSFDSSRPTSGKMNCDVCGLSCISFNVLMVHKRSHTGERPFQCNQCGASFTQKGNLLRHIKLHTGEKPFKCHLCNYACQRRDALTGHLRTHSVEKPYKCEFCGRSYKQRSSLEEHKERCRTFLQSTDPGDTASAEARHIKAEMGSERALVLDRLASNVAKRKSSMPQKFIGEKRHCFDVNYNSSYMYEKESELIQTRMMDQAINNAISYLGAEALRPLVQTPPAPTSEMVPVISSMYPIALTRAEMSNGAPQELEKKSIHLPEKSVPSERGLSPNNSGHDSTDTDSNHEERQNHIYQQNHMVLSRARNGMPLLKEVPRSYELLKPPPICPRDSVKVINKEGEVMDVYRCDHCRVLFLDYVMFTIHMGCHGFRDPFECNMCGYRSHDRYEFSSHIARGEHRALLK
T2 sequence (Q96SW2 whole entry, further chain): as the sequence (Q96SW2 whole entry) above
T2 sequence (Q16531 whole entry partner): as the sequence (Q16531 whole entry partner) above
Procedure: as §1

[3] = test system: involved and uninvolved free light chains; test: Reduction in dFLC after single agent exposure to Compound 1; assay type: in vivo, human
Procedure: Using samples collecting in Example 24, the difference between involved free light chains and uninvolved free light changes, or dFLC, for Patients 1-3 were calculated using the following formula:
[Abnormal light chainbaseline−normal light chainbaseline]−[Abnormal light chainnadir−normal light chainnadir]/[Abnormal light chainbaseline−normal light chainbaseline]*100 dFLC equation: […]

[4] = test system: OCI-LY10 human DLBCL intracranial xenografts; test: OCI-LY10 human DLBCL intracranial xenograft study, survival
Procedure: Agents were tested in the OCI-LY10 human DLBCL intracranial model. […] Rituximab was administered from day 1 via i.v. once per week. Rituximab was dosed at 10 and 30 mg/kg. Individual mouse was euthanized once its body weight loss was over 20%.
The cells growing in an exponential growth phase were harvested and counted for tumor inoculation.
99 CB17 SCID mice were inoculated by intracranial injection with OCI-LY10 cells (1×10^6) for tumor development.
Tumor inoculation: Intraperitoneally injected avertin at dosage of 240 mg/kg to anaesthetize the CB17 SCID mice. Fixed the head of the anaesthetized mice to the brain solid positioner, sterilized the head skin with 70% alcohol. […] Punched a hole about 2 mm right of the anterior fontanel and 1 mm ahead the coronal on the skull with a 25 G needle. Cell suspensions were mixed and certain amount was sucked into the 5 μL injector slowly to avoid bubble formation. The cells were swapped around the needle with alcohol to avoid extracranial tumor genesis. The needle was stuck vertically into the formed hold and 5 μL of cell suspension containing 1×10^6 OCI-LY10 cells was slowly injected for over 1 minute. The injector was then held for another 1 minute and then pulled back to decrease the drainage of the cells suspension. The skin was closed with tweezers and then sewed. Meloxicam was then injected 30 min after the surgery at dosage of 5 mg/kg to relieve the pain. The animals were kept under monitoring until they were awake.
Animals were grouped for treatment on day 7 after tumor inoculation.
At the time of routine monitoring, the animals were daily checked for any effects of tumor growth and treatments on normal behavior such as mobility, food and water consumption (by looking only), body weight gain/loss (body weights were measured twice weekly), eye/hair matting and any other abnormal effect as stated in the protocol. Death and observed clinical signs were recorded on the basis of the numbers of animals within each subset.

[5] = Compound 1, 0.01 mg/kg, p.o., QD

Q: Which “Ikaros (IKZF1) degradation in PBMC compared to baseline” value [1] does the source give for `O=C1CC[C@H](N2C(=O)c3cccc4c(Cc5ccc(CN6CCOCC6)cc5)ccc2c34)C(=O)N1` [Compound 1, (S)-3-(6-(4-(morpholinomethyl)benzyl)-2-oxobenzo[cd]indol-1(2H)-yl)piperidine-2,6-dione] here?
A: The value was “deep degradation”.

Q: And the “Aiolos (IKZF3) degradation in PBMC compared to baseline” value [2]?
A: Its value is “deep degradation”.

Q: What about the “% Change at Nadir in dFLC” value ([3]; Patient 1, first dose 50 μg oral, no extramedullary disease, ∇ (down)) of the same compound?
A: The value was “∇ 48.2%”.

Q: And the “% Change at Nadir in dFLC” value ([3]; Patient 2, first dose 50 μg oral, Multiple Plasmacytomas, ∇ (down))?
A: Its value is “∇ 78.1%”.

Q: And the “% Change at Nadir in dFLC” value ([3]; Patient 3, first dose 50 μg oral, Lytic Bone Lesions, ∇ (down))?
A: The value was “∇ 41.0%”.

Q: What about the “% Change at Nadir in dFLC” value ([3]; Patient 4, first dose 50 μg oral, no extramedullary disease, printed with Δ (up)) of the same compound?
A: Its value is “Δ 56.3%”.

Q: And the “extension of survival time” value ([4]; Compound 1 0.01 mg/kg p.o. once per day, p=0.001)?
A: The value was 35.7%.

Q: And the “Median Survival (Days), ± SEM” value [4, 5]?
A: Its value is 19.00 ± 1.41 days.

Q: And the “Survival time extension (%)” value [4, 5]?
A: The value was 35.7%.
